Some results are limits rather than exact numbers.

The test deals with GST-hRIPK1 (8-327) (Homo sapiens (Human), UniProt Q13546). The test can be described thus: Fluorescent Polarization Binding (FP Binding) assay. Conditions: 10 nM GST-hRIPK1 (8-327), 5 nM fluorescent labeled ligand; read-out: FP IC50. The method, then: Fluorescent Polarization Binding (FP Binding) assay (Berger S. B. et al. […] Maki J. L. et al. […] Test Compounds were serially diluted in DMSO at 100 fold final concentrations in the assay (1% DMSO final). […] For negative control the enzyme addition was replaced by assay buffer only. After addition of 5 μL of fluorescent labeled ligand at twice the final concentrations in assay buffer, the plate was incubated at RT for 30 min.
Sequence of GST-hRIPK1 (8-327) (Q13546 8-327): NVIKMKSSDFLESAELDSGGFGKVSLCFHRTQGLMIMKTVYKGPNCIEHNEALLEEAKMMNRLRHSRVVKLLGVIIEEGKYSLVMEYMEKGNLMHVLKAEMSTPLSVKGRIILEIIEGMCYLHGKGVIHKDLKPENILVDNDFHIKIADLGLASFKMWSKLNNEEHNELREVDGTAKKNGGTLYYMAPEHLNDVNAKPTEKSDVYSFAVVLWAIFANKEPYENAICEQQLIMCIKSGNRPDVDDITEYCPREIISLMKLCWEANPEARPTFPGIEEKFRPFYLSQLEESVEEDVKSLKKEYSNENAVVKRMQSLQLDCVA
Broadly, the IC50 is the concentration that inhibits the measured activity by half. On to `CN1C(=O)[C@H](NC(=O)c2nnc(Cc3ccccc3)[nH]2)C[C@H](F)c2ccccc21` (mixture of isomers) [Example 11B], for which the IC50 was in the range of 1 to 10 µM. As to `CN1C(=O)[C@@H](NC(=O)c2cc(Cc3ccccc3)on2)CCc2sc(Cl)cc21` (stereo in doubt) [Example 1A, 5-Benzyl-N-(2-chloro-4-methyl-5-oxo-4H,5H,6H,7H,8H-thieno[3,2-b]azepin-6-yl)-1,2-oxazole-3-carboxamide], the IC50 is 0.0001 to 1 µM. As for `CN1C(=O)[C@H](NC(=O)c2cc(Cc3ccccc3)on2)CCc2sc(Cl)cc21` (stereo in doubt) [Example 1B, 5-Benzyl-N-(2-chloro-4-methyl-5-oxo-4H,5H,6H,7H,8H-thieno[3,2-b]azepin-6-yl)-1,2-oxazole-3-carboxamide], the half-inhibitory concentration (IC50) was in the range of 0.0001 to 1 µM. In the case of `CN1C(=O)C(NC(=O)c2cc(Cc3ccccc3)on2)[C@@H]2C[C@@H]2c2ccccc21` (stereo in doubt) [Example 7B, 5-benzyl-N-((2S)-4-methyl-3-oxo-1,1a,2,3,4,8b-hexahydrobenzo[b]cyclopropa[d]azepin-2-yl)isoxazole-3-carboxamide], the IC50 is above 10 µM.

Regarding `CN1C(=O)C(NC(=O)c2cc(Cc3ccccc3)on2)CC(F)c2ccccc21` (stereo not drawn) [Example 2B, 5-benzyl-N-(5-fluoro-1-methyl-2-oxo-2,3,4,5-tetrahydro-1H-benzo[b]azepin-3-yl)isoxazole-3-carboxamide], the IC50 lay within 0.0001 to 1 µM. With `CN1C(=O)[C@@H](NC(=O)c2cc(Cc3ccccc3)on2)[C@H]2C[C@H]2c2ccccc21` [Example 7A, 5-benzyl-N-((2S)-4-methyl-3-oxo-1,1a,2,3,4,8b-hexahydrobenzo[b]cyclopropa[d]azepin-2-yl)isoxazole-3-carboxamide], the 50% inhibitory concentration (IC50) lay in the range of 0.0001 to 1 µM. Regarding `CN1C(=O)[C@@H](NC(=O)c2nnc(Cc3ccccc3)[nH]2)C[C@@H](F)c2ccccc21` [Example 11A], the IC50 fell in the range of 0.0001 to 1 µM.

Regarding `CN1C(=O)[C@@H](NC(=O)c2nnc(Cc3ccccc3)[nH]2)C[C@H](F)c2ccccc21` [Example 12A], the half-maximal inhibitory concentration (IC50) fell in the range of 0.0001 to 1 µM.

With `CN1C(=O)[C@H](NC(=O)c2nnc(Cc3ccccc3)[nH]2)C[C@@H](F)c2ccccc21` [Example 12B], the IC50 lay in the range of 0.0001 to 1 µM. On to `CN1C(=O)[C@@H](NC(=O)c2cc(Cc3ccccc3)[nH]n2)CC2(CC2)c2ccccc21` [Example 59, 5-benzyl-N-[(3S)-1-methyl-2-oxo-1,2,3,4-tetrahydrospiro[l-benzazepine-5,1-cyclopropane]-3-yl]-1H-pyrazole-3-carboxamide], for which the IC50 lay within 0.0001 to 1 µM. Take `CN1C(=O)[C@@H](NC(=O)c2cc(Cc3ccccc3)[nH]n2)[C@H]2C[C@H]2c2ccccc21` [Example 60A, 5-benzyl-N-((1aS,2S,8bR)-4-methyl-3-oxo-1,1a,2,3,4,8b-hexahydrobenzo[b]cyclopropa[d]azepin-2-yl)-1H-pyrazole-3-carboxamide]: the IC50 was in the range of 0.0001 to 1 µM.

Take `CN1C(=O)[C@H](NC(=O)c2cc(Cc3ccccc3)[nH]n2)[C@@H]2C[C@@H]2c2ccccc21` [Example 60B, 5-benzyl-N-((1aR,2R,8bS)-4-methyl-3-oxo-1,1a,2,3,4,8b-hexahydrobenzo[b]cyclopropa[d]azepin-2-yl)-1H-pyrazole-3-carboxamide]: the half-maximal inhibitory concentration (IC50) was above 3 µM. Turning to `CN1C(=O)[C@@H](NC(=O)c2coc(C3(c4ccccc4)CC3)n2)COc2ccccc21` [Example 61, (S)—N-(5-methyl-4-oxo-2,3,4,5-tetrahydrobenzo[b][1,4]oxazepin-3-yl)-2-(1-phenylcyclopropyl)oxazole-4-carboxamide], the IC50 is 0.0001 to 1 µM. For `O=C(N[C@H]1COc2cccnc2NC1=O)c1cc(C2(c3ccccc3)CC2)on1` [Example 62, (S)—N-(4-oxo-2,3,4,5-tetrahydropyrido[3,2-b][1,4]oxazepin-3-yl)-5-(1-phenylcyclopropyl)isoxazole-3-carboxamide], the IC50 was 0.0001 to 1 µM. For `CN1C(=O)[C@@H](NC(=O)c2ncc(C3(c4ccccc4)CC3)s2)COc2cccnc21` [Example 63, (S)—N-(5-methyl-4-oxo-2,3,4,5-tetrahydropyrido[3,2-b][1,4]oxazepin-3-yl)-5-(1-phenylcyclopropyl)thiazole-2-carboxamide], the concentration for half-maximal inhibition (IC50) lay in the range of 0.0001 to 1 µM. `CN1C(=O)[C@@H](NC(=O)c2nn(Cc3ccccc3)cc2F)COc2ccccc21` [Example 64, (S)-1-benzyl-4-fluoro-N-(5-methyl-4-oxo-2,3,4,5-tetrahydrobenzo[b][1,4]oxazepin-3-yl)-1H-pyrazole-3-carboxamide]: the 50% inhibitory concentration (IC50) lay in the range of 0.0001 to 1 µM. Turning to `CN1C(=O)[C@@H](NC(=O)c2nnc(Cc3ccccc3)[nH]2)[C@@H]2C[C@@H]2c2ccccc21` [Example 67A, 5-benzyl-N-((1aR,2S,8bS)-4-methyl-3-oxo-1,1a,2,3,4,8b-hexahydrobenzo[b]cyclopropa[d]azepin-2-yl)-4H-1,2,4-triazole-3-carboxamide], the IC50 lay within 0.0001 to 1 µM.

Consider `CN1C(=O)[C@H](NC(=O)c2nnc(Cc3ccccc3)[nH]2)[C@H]2C[C@H]2c2ccccc21` [Example 67B, 5-benzyl-N-((1aS,2R,8bR)-4-methyl-3-oxo-1,1a,2,3,4,8b-hexahydrobenzo[b]cyclopropa[d]azepin-2-yl)-4H-1,2,4-triazole-3-carboxamide], for which the IC50 is above 3 µM. To `O=C(N[C@H]1COc2ccccc2-n2ccnc21)c1nnc(Cc2ccccc2)[nH]1` [Example 68A, (R)-5-benzyl-N-(4,5-dihydrobenzo[b]imidazo[1,2-d][1,4]oxazepin-4-yl)-4H-1,2,4-triazole-3-carboxamide] belongs 0.0001 to 1 µM; to `O=C(N[C@@H]1COc2ccccc2-n2ccnc21)c1nnc(Cc2ccccc2)[nH]1` [Example 68B, (S)-5-benzyl-N-(4,5-dihydrobenzo[b]imidazo[1,2-d][1,4]oxazepin-4-yl)-4H-1,2,4-triazole-3-carboxamide], above 3 µM.

As to `O=C(N[C@H]1CCc2ccccc2-n2cnnc21)c1nnc(Cc2ccccc2)[nH]1` [Example 69A, (S)-5-benzyl-N-(5,6-dihydro-4H-benzo[f][1,2,4]triazolo[4,3-a]azepin-4-yl)-4H-1,2,4-triazole-3-carboxamide], the IC50 was 0.0001 to 1 µM. In the case of `O=C(N[C@@H]1CCc2ccccc2-n2cnnc21)c1nnc(Cc2ccccc2)[nH]1` [Example 69B, (R)-5-benzyl-N-(5,6-dihydro-4H-benzo[f][1,2,4]triazolo[4,3-a]azepin-4-yl)-4H-1,2,4-triazole-3-carboxamide], the IC50 is above 3 µM. Turning to `O=C(N[C@H]1COc2ccccc2-n2ccnc21)c1cc(Cc2ccccc2)on1` [Example 70A, (R)-5-benzyl-N-(4,5-dihydrobenzo[b]imidazo[1,2-d][1,4]oxazepin-4-yl)isoxazole-3-carboxamide], the 50% inhibitory concentration (IC50) was 0.0001 to 1 µM.

As to `O=C(N[C@@H]1COc2ccccc2-n2ccnc21)c1cc(Cc2ccccc2)on1` [Example 70B, (S)-5-benzyl-N-(4,5-dihydrobenzo[b]imidazo[1,2-d][1,4]oxazepin-4-yl)isoxazole-3-carboxamide], the IC50 was above 3 µM. In the case of `O=C(N[C@H]1CCc2ccccc2-n2cnnc21)c1cc(Cc2ccccc2)on1` [Example 71A, (S)-5-benzyl-N-(5,6-dihydro-4H-benzo[f][1,2,4]triazolo[4,3-a]azepin-4-yl)isoxazole-3-carboxamide], the half-inhibitory concentration (IC50) was 0.0001 to 1 µM.

Turning to `O=C(N[C@@H]1CCc2ccccc2-n2cnnc21)c1cc(Cc2ccccc2)on1` [Example 71B, (R)-5-benzyl-N-(5,6-dihydro-4H-benzo[f][1,2,4]triazolo[4,3-a]azepin-4-yl)isoxazole-3-carboxamide], the 50% inhibitory concentration (IC50) was above 3 µM. As for `CN1C(=O)[C@@H](NC(=O)c2cc(C3(c4ccccc4)CC3)[nH]n2)COc2ccccc21` [Example 72, (S)—N-(5-methyl-4-oxo-2,3,4,5-tetrahydrobenzo[b][1,4]oxazepin-3-yl)-5-(1-phenylcyclopropyl)-1H-pyrazole-3-carboxamide], the figure is 0.0001 to 1 µM. For the compound `CN1C(=O)[C@@H](NC(=O)c2cc(C3(c4ccccc4)CC3)[nH]n2)COc2cccnc21` [Example 73, (S)—N-(5-methyl-4-oxo-2,3,4,5-tetrahydropyrido[3,2-b][1,4]oxazepin-3-yl)-5-(1-phenylcyclopropyl)-1H-pyrazole-3-carboxamide], the IC50 was 0.0001 to 1 µM. Regarding `CN1C(=O)[C@@H](NC(=O)c2nn(Cc3ccccn3)cc2F)COc2cccnc21` [Example 74, (S)-4-fluoro-N-(5-methyl-4-oxo-2,3,4,5-tetrahydropyrido[3,2-b][1,4]oxazepin-3-yl)-1-(pyridin-2-ylmethyl)-1H-pyrazole-3-carboxamide], the 50% inhibitory concentration (IC50) lay within 0.0001 to 1 µM.

For `CN1C(=O)[C@H](NC(=O)c2nnc(Cc3ccccc3)[nH]2)[C@@H]2C[C@@H]2c2cccnc21` [Example 75B, 5-benzyl-N-((1aR,2R,8bS)-4-methyl-3-oxo-1,1a,2,3,4,8b-hexahydrocyclopropa[d]pyrido[2,3-b]azepin-2-yl)-4H-1,2,4-triazole-3-carboxamide], the IC50 was above 3 µM.

Turning to `CN1C(=O)[C@@H](NC(=O)c2nn(Cc3ccccc3)cc2F)COc2cccnc21` [Example 76, (S)-1-benzyl-4-fluoro-N-(5-methyl-4-oxo-2,3,4,5-tetrahydropyrido[3,2-b][1,4]oxazepin-3-yl)-1H-pyrazole-3-carboxamide], the IC50 lay within 0.0001 to 1 µM. On to `CN1C(=O)[C@@H](NC(=O)c2ncc(C3(c4ccccc4)CC3)[nH]2)COc2ccccc21` [Example 78, (S)—N-(5-methyl-4-oxo-2,3,4,5-tetrahydrobenzo[b][1,4]oxazepin-3-yl)-5-(1-phenylcyclopropyl)-1H-imidazole-2-carboxamide], for which the 50% inhibitory concentration (IC50) lay within 0.0001 to 1 µM. On to `CN1C(=O)[C@@H](NC(=O)c2nc3cccc(-c4ccccc4F)c3s2)COc2ccccc21` [Example 79, (S)-7-(2-fluorophenyl)-N-(5-methyl-4-oxo-2,3,4,5-tetrahydrobenzo[b][1,4]oxazepin-3-yl)benzo[d]thiazole-2-carboxamide], for which the half-inhibitory concentration (IC50) is 0.0001 to 1 µM.

These data come from patent US9815850B2, “Compounds, compositions and methods” (Denali Therapeutics Inc., priority 2016, dated 2017).
